pIC50: −log10 of the molar value. The source made the active and inactive calls. The rule behind the calls is not given here.
Columns and labels:
Rattus norvegicus [1] = organism: Rattus norvegicus; assay: Inhibition of rat kidney Na(+)/K(+) ATPase assessed as enzyme activity at 1 mM after 2 hrs by Fiske and Subbarow method relative to control; set-up: scale not given: the % may be the effect or the level left
Rattus norvegicus [2] = organism: Rattus norvegicus; assay: Inhibition of rat kidney Na(+)/K(+) ATPase assessed as enzyme activity at 1 mM after 2 hrs by Fiske and Subbarow method relative to control in presence of 1 mM cysteine; set-up: scale not given: the % may be the effect or the level left
Rattus norvegicus [3] = organism: Rattus norvegicus; assay: Inhibition of rat kidney Na(+)/K(+) ATPase assessed as enzyme activity at 1 mM after 2 hrs by Fiske and Subbarow method relative to control in presence of 500 uM beta mercaptoethanol; set-up: scale not given: the % may be the effect or the level left
Rattus norvegicus [4] = organism: Rattus norvegicus; assay: Inhibition of rat kidney Na(+)/K(+) ATPase at 1 mM after 2 hrs by Fiske and Subbarow method in presence of DTT
Rattus norvegicus [5] = organism: Rattus norvegicus; assay: Inhibition of Na(+)/K(+) ATPase in rat kidney assessed as decrease in free sulfydryl groups level at 30 uM after 1 hr by Ellman's method
[6] = Inhibition of rat stomach H(+)/K(+) ATPase after 2 hrs by Fiske and Subbarow method; format: tissue-based
Rattus norvegicus [7] = organism: Rattus norvegicus; assay: Inhibition of rat kidney Na(+)/K(+) ATPase assessed as enzyme activity at 30 uM after 2 hrs by Fiske and Subbarow method relative to control in presence of 500 uM beta mercaptoethanol; set-up: scale not given: the % may be the effect or the level left
Rattus norvegicus [8] = organism: Rattus norvegicus; assay: Inhibition of rat kidney Na(+)/K(+) ATPase assessed as enzyme activity at 30 uM after 2 hrs by Fiske and Subbarow method relative to control in presence of 1 mM cysteine; set-up: scale not given: the % may be the effect or the level left
[9] = Inhibition of rat kidney Na(+)/K(+) ATPase
[10] = Inhibition of rat gastrocnemius Ca2+/Mg2+ ATPase after 2 hrs; format: tissue-based
Rattus norvegicus [11] = organism: Rattus norvegicus; assay: Inhibition of rat kidney Na(+)/K(+) ATPase assessed after 2 hrs by Fiske and Subbarow method in presence of DTT
Rattus norvegicus [12] = organism: Rattus norvegicus; assay: Inhibition of rat kidney Na(+)/K(+) ATPase assessed as enzyme activity at 30 uM after 2 hrs by Fiske and Subbarow method relative to control; set-up: scale not given: the % may be the effect or the level left
Rattus norvegicus [13] = organism: Rattus norvegicus; assay: Inhibition of rat kidney Ca2+/Mg2+ ATPase assessed after 2 hrs by Fiske and Subbarow method in presence of DTT
Rattus norvegicus [14] = organism: Rattus norvegicus; assay: Inhibition of rat kidney Na(+)/K(+) ATPase assessed as enzyme activity preincubated for 30 mins after 2 hrs by Fiske and Subbarow method in presence of beta mercaptoethanol

Question: With `C[C@@H]1O[C@@H](O[C@H]2C[C@@H](O)[C@]3(CO)[C@H]4[C@H](O)C[C@]5(C)[C@@H](C6=CC(=O)OC6)CC[C@]5(O)[C@@H]4CC[C@]3(O)C2)[C@H](O)[C@H](O)[C@H]1O` as the compound, how does the Activity (Rattus norvegicus [1]) read?
Answer: 11.6%

Question: What about the Activity (Rattus norvegicus [2]) of the same compound?
Answer: 12%

Question: And the Activity (Rattus norvegicus [3])?
Answer: 10.5%

Question: And the Activity (Rattus norvegicus [4])?
Answer: Active

Question: For `COc1cc2c(cc1O)oc(=O)c1c3cc(O)c(O)cc3oc21`, which Activity (Rattus norvegicus [5]) is on record?
Answer: Active

Question: And the pIC50 [6]?
Answer: 4.52

Question: And the Activity (Rattus norvegicus [7])?
Answer: 81.3%

Question: And the Activity (Rattus norvegicus [8])?
Answer: 75.5%

Question: And the pIC50 [9]?
Answer: 5.52

Question: And the pIC50 [10]?
Answer: 5.00

Question: What about the Activity (Rattus norvegicus [11]) of the same compound?
Answer: inactive

Question: And the Activity (Rattus norvegicus [12])?
Answer: 6.9%

Question: What about the Activity (Rattus norvegicus [13]) of the same compound?
Answer: inactive

Question: What about the Activity (Rattus norvegicus [14]) of the same compound?
Answer: Active

Reference: ChEMBL document CHEMBL1142447, “Insights into the mechanism of Na+,K+-ATPase inhibition by 2-methoxy-3,8,9-trihydroxy coumestan” (Bioorg Med Chem, 2008)
